Results reported in patent US7718645B2, “Substituted bicyclolactam compounds” (Pfizer Inc., priority 2007, dated 2010).
Like-named read-outs stand apart in the source and are kept apart here.

Target: T1, Human full-length diacylglycerol:acylCoA acyltransferase 1 (DGAT-1) (Homo sapiens, UniProt O75907)
T1 construct: Human full-length diacylglycerol:acylCoA acyltransferase 1 (DGAT-1) was expressed in Sf9 insect cells; made in house; host or cells: Sf9 insect cells (baculovirus)
T1 sequence (O75907 1-488): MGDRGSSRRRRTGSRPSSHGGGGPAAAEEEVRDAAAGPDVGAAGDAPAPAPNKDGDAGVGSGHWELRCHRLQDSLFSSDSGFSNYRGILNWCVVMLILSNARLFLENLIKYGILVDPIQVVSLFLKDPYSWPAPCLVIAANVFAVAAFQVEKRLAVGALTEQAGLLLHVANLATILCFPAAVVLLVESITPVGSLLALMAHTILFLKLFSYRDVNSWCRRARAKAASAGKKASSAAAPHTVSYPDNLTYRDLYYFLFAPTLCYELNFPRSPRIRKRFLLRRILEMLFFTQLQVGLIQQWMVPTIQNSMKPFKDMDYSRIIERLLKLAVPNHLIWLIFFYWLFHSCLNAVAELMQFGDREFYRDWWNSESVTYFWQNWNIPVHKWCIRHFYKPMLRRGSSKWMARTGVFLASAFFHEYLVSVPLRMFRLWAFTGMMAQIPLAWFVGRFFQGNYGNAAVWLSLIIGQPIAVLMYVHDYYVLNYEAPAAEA
Assay: In vitro assay for DGAT-1 inhibition ([14C]decanoylCoA, Sf9 membrane fraction)
Type: biochemical
Description: Human full-length diacylglycerol:acylCoA acyltransferase 1 (DGAT-1) was expressed in Sf9 insect cells which are then lysed and a crude membrane fraction (105,000×g pellet) was prepared.
The cells were cultured as follows. Sf9 cells (20 L) were infected with 4 mL of DGAT1 Baculovirus Infected Insect Cells (BIIC) for 72 hours in a Wave Bioreactor System 20/50P (Wave Biotec/GE Healthcare).
Crude DGAT-1 microsomes were prepared as follows. Cell pellets were washed once with ice-cold Dulbecco's phosphate-buffered saline. Cells were collected in tabletop centrifuge (Beckman GS-6KR), 15 minutes, 2000×g, 4° C. Twenty (20) mL of ice-cold Microsome Buffer (MB) was added per 5 g of cell pellet. The suspension was passed through a microfluidizer 3 times (18K psi). The lysate was transferred to centrifuge tubes and centrifuged for 20 minutes at 5000×g (Beckman-Coulter, Inc. Allegra® 64R High-Speed Refrigerated Benchtop Centrifuge, F0650 rotor) at 4° C. The supernatant was transferred to Ultracentrifuge tubes and centrifuged at […] for 1 hr in a Beckman Ti-45 rotor, 4° C. The supernatant fluid was discarded. The pellet was resuspended in 70 mL of MB by sonication. The microsome concentration was determined using Bio-Rad Protein DC Protein Assay. The microsomes were filter sterilized with a 0.22 μm filter. The samples were portioned, flash frozen and stored at −80° C.
Inhibitors in DMSO were pre-incubated with membranes before initiating the DGAT-1 reaction by the addition of decanoylCoA. […] The inhibitors were present at a range of eight concentrations to generate an apparent IC50 for each compound. […] Specifically, the eight concentrations used were 10 μM, 3 μM, 1 μM, 300 nM, 100 nM, 30 nM, 10 nM and 3 nM.
The reactions were allowed to proceed for 1.5 h at room temperature and then terminated by the addition of 10 μl of HCl (0.5 M). Reaction mixtures were neutralized by the addition of 15 μl of tris(hydroxy-methyl)aminomethane (1M, pH 8.0) and then mixed by trituration with 37.5 μl of Microscint™-E (Perkin Elmer).
Where this DGAT-1 inhibition assay was performed on a compound more than once, an inhibition range is also provided for that compound.

[1] = apparent IC50, eight inhibitor concentrations 10 μM to 3 nM, read-out: IC50
[2] = inhibition range where the assay was performed on a compound more than once, read-out: IC50 range

| Compound | IC50 [1] | IC50 [2] |
| --- | --- | --- |
| C[C@@H]1CN(c2ccc(C3CCC(CC#N)CC3)c(F)c2)C(=O)c2c(N)ncnc2O1 (stereo partly drawn) [Example 48, (R)-2-(4-(4-(4-amino-8-methyl-5-oxo-7,8-dihydropyrimido[5,4-f][1,4]oxazepin-6(5H)-yl)-2-fluorophenyl)cyclohexyl)acetonitrile] | 0.0129 µM | 0.0045 to 0.0222 µM |
| Nc1ncnc2c1C(=O)N(c1ccc(C3CCC(C(=O)O)CC3)cc1)CCO2 (centres unmarked) [Example 49, 4-[4-(4-Amino-5-oxo-7,8-dihydro-5H-9-oxa-1,3,6-triaza-benzocyclohepten-6-yl)-phenyl]-cyclohexanecarboxylic Acid] | 0.0078 µM | 0.0058 to 0.0105 µM |
| COC(=O)C1CCC(c2ccc(N3CCOc4ncnc(N)c4C3=O)cc2)CC1 (centres unmarked) [Example 50, 4-[4-(4-Amino-5-oxo-7,8-dihydro-5H-9-oxa-1,3,6-triaza-benzocyclohepten-6-yl)-phenyl]-cyclohexanecarboxylic Acid Methyl Ester] | 0.0473 µM | 0.0452 to 0.0495 µM |
| COC(=O)Cc1ccc(Oc2ccc(N3CCOc4ncnc(N)c4C3=O)cc2)cc1 [Example 54, Methyl {4-[4-(4-amino-5-oxo-7,8-dihydropyrimido[5,4-f][1,4]oxazepin-6(5H)-yl)phenoxy]phenyl}acetate] | 0.254 µM | – |
| COC(=O)C1C2C1[C@H]1C[C@@H]2C[C@@H]1c1ccc(N2CCOc3ncnc(N)c3C2=O)cc1 (stereo partly drawn) [Example 56, (1R,5R,6S)-6-[4-(4-Amino-5-oxo-7,8-dihydro-5H-9-oxa-1,3,6-triaza-benzocyclohepten-6-yl)-phenyl]-tricyclo[3.2.1.0*2,4*]octane-3-carboxylic Acid Methyl Ester] | 0.0783 µM | – |
